From patent US20110270151A1, “IMAGE-GUIDED ENERGY DEPOSITION FOR TARGETED DRUG DELIVERY” (The Methodist Hospital Research Institute, priority 2008, published 2011)
Where a name gives a salt, the structure may show the parent alone.

Assays:
HSP70 [1] = target: T1, HSP70 (Mus musculus, UniProt Q61696); assay: in vivo analysis of FAM-labeled bifunctional molecule after hind limb heating; parameters: species or system mice; settings: 20 nmol i.v., about 4 hours post-injection (8 hrs post hyperthermia), dermis dissected
T1 construct: imaging an inducible target using an endogenous protein involved in stress response; from tissue; host or cells: heated right hind limb of live mice
T1 sequence (Q61696 whole entry): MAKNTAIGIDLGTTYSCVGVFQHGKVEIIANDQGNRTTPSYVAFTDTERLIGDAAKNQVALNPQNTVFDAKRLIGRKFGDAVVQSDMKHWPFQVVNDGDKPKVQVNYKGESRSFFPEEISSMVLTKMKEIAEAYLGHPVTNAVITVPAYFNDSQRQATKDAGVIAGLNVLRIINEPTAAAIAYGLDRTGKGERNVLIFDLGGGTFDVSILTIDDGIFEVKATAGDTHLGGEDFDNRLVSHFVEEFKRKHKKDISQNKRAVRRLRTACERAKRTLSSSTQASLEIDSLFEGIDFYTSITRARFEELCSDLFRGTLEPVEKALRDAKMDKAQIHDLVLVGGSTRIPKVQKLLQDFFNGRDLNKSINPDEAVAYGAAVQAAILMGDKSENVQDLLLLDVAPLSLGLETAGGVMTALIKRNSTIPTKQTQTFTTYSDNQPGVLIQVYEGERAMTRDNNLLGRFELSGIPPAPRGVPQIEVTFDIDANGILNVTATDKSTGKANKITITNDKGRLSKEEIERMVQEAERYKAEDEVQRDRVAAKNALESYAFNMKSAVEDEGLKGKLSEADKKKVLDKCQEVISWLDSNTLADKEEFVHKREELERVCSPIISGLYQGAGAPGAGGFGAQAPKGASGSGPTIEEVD
Experimental: As a control, 6-carboxyfluorescein (6-FAM) was administered at the same dose (20 nmol) in the same manner. Due to the high intrinsic autofluorescence of the dermis, experimental mice were sacrificed, the dermis dissected, and imaged on a small animal dedicated optical system (Xenogen/Caliper IVIS-200) using the appropriate excitation/emission filter set.

Hsp70 [2] = settings: cited from earlier work
[3] = basic or acidic aqueous solution; cited from earlier work
Hsp70 [4] = settings: cited from earlier work; remark: listed apart in the source

SMILES	fluorescence in heated limb tissue (HSP70 [1])	Kd (Hsp70 [2])	hydrolytic stability [3]	effect on Hsp70 steady state ATPase activity (Hsp70 [4])
O=C(O)c1ccc2c(c1)C1(OC2=O)c2ccc(O)cc2Oc2cc(O)ccc21 [Compound 6-FAM, 6-carboxyfluorescein]	minimal level of fluorescence	–	–	–
N=C(N)NCCCCCCC(=O)N[C@@H](O)C(=O)NCCCCNCCCN (racemic) [Compound 15-DSG, (±)7-[(aminoiminomethyl)amino]-N-[2-[[4-[(3-aminopropyl)amino]butyl]amino]-1-hydroxy-2-oxoethyl]heptanamide trihydrochloride]	–	4 µM	hydrolyses gradually	stimulates
